In patent US20210283083A1, “USE OF TYROSINE HYDROXYLASE INHIBITORS FOR THE TREATMENT OF AORTIC ANEURYSM” (CONSEJO SUPERIOR DE INVESTIGACIONES CIENTÍFICAS (CSIC), priority 2018, published 2021):

Experiments:
Assay type in all cases: in vivo
[1] = system: ApoE^−/− mice infused with angiotensin II; test: Ang II-induced aortic aneurysm in ApoE^−/− mice (ultrasonography, histology)
Method: FIG. 3. […] (A) Graph which represents the weekly evolution of the aortic diameter of ApoE^−/− mice infused with saline or angiotensin II (Ang II; 1000 ng/kg/min for 28 days) analysed by means of ultrasonography. Animals infused with Ang II were treated or not with AMPT (100 mg/kg via IP, administered twice a day from the day before implementing the Ang II pump). The values correspond to the mean±SEM (saline, n=9; Ang II, n=14; Ang II+AMPT, n=19). P<0.05: * vs. time 0 of the same experimental group; # vs. animals infused with saline at the same time; $ vs. animals infused with Ang II (not treated with AMPT) at the same time. (B) Representative images obtained by means of ultrasonography of the cross-sectional view of the aorta of each of the experimental groups indicated in (A) after 4 weeks of treatment. (C) Representative photographs of the aortas of the mice in the 3 study groups at the end of the study.
(§1) FIG. 4. […] ApoE^−/− mice were infused with saline or angiotensin II (Ang II; 1000 ng/kg/min for 28 days). Animals infused with Ang II were treated or not with AMPT (100 mg/kg, via IP, administered twice a day from the day before implementing the Ang II pump). (A and B) Representative images of the histological analysis using Masson's trichrome (A) and orcein (B) staining in sections of the abdominal aorta of the indicated study groups. Arrows indicate elastic fibre ruptures. (C) Representative staining for MAC3 (macrophage marker) in sections of the abdominal aorta of each one of the experimental groups. Arrows indicate positive regions for MAC3. Bar: 100 microns.
(§2) The studies were developed in male ApoE^−/− mice who were acclimatised to the facility for 1 week before the study. Animals were infused with Ang II (1000 ng/kg/min) by means of osmotic minipumps (model 1004, Alzet) implemented subcutaneously in the interscapular space of the mice after anesthesia with isoflurane. The procedure lasts approximately 15 minutes per animal. Immediately after surgery, antibiotics (penicillin, 22,000 u/Kg, i.m.) and analgesics (buprenorphine 0.05 mg/Kg, i.m.) were administered for preventing infections and limiting animal discomfort, which were kept on a heating pad until they woke up after the intervention and were carefully monitored during the post-surgery period. A group of the mice infused with Ang II received AMPT treatment (100 mg/kg, via i.p) administered twice daily from the day before implementing the Ang II pump and throughout the study (28 days). The control group consisted of ApoE^−/− mice infused with saline. Blood pressure was assessed weekly (at 0, 7, 14, 21 and 28 days) by means of the tail plethysmography method. The diameter of the aorta was also assessed weekly by means of abdominal ultrasound using ultrasound equipment (Vevo2100 Imaging systems, Visualsonics) with a 30 MHz transducer. To do this, the mice were anesthetised by means of 1.5% isofluorane inhalation and secured in a supine position on a heating platform. After shaving the precordial region, the transducer was applied to the abdominal wall to take measurements of the abdominal aorta. Those abdominal aortas with external diameters greater than or equal to 1.5 mm were considered aneurysmal. All measurements were carried out from the images captured by using the analysis software. After 4 weeks, the animals were euthanised by means of terminal intraperitoneal anesthesia with a mixture of medetomidine (1 mg/kg) and ketamine (75 mg/kg) in saline (final volume of 200 μl), aortas were immediately harvested, they were examined to determine the presence of aneurysms and were immediately frozen in nitrogen or fixed in paraformaldehyde for macroscopic characterisation or to be embedded in paraffin and processed for histochemical studies.

[2] = Systolic blood pressure by tail plethysmography in ApoE^−/− mice infused with Ang II; conditions: for systolic pressure: Ang II 1000 ng/kg/min + AMPT 100 mg/kg i.p. twice daily
Method: as §2

[3] = system: TgNR4A3^CML mice infused with angiotensin II; test: Ang II-induced aortic aneurysm in TgNR4A3^CML mice (ultrasonography, histology)
Method: (A) Diameter of the aorta of non-transgenic mice (controls; C57BL/6J; WT) and transgenic mice for human NR4A3 (TgNR4A3^CML) infused with saline or angiotensin II (Ang II; 1000 ng/kg/min for 28 days). A group of TgNR4A3^CML mice infused with Ang II was treated with AMPT (100 mg/kg, via IP, administered twice a day from the day before implementing the Ang II pump). The diameter of the aorta was determined by means of ultrasonography. Values are expressed as mean±SEM (at least n=7). P<0.05: * vs. time 0 of the same experimental group; # vs. the same animal infused with saline at the same time; $ vs. TgNR4A3CML infused with Ang II and treated with AMPT. (B) Representative images obtained by means of ultrasonography of the cross-sectional view of the aorta of each of the experimental groups indicated in (A) after 4 weeks of treatment. (C) Representative photographs of the aortas of the mice in the 5 groups at the end of the study.
as §1, with “6.” for “4.”, “Non-transgenic (controls; C57BL/6J; WT) and transgenic” for “ApoE^−/−”, “mice for human NR4A3 (TgNR4A3^CML)” for “mice”, “A group of transgenic animals” for “Animals”
as §2
The studies were developed in a similar way to that described in Example 3. […]

[4] = Systolic blood pressure in TgNR4A3^CML mice infused with Ang II; conditions: for systolic pressure: Ang II + AMPT
Method: as §2
The studies were developed in a similar way to that described in Example 3. In this case, the effect of the infusion of Ang II on the diameter of the aorta in control animals (C57BL/6J; WT) and in transgenic mice for NR4A3 (TgNR4A3^CML) was analysed. The transgenic mice infused with Ang II were divided into two groups, one of which received AMPT treatment from the day before implementation of the Ang II pumps, as described in Example 3, while the second group only received the vehicle in which this drug was administered (saline). The control groups consisted of transgenic mice and non-transgenic controls infused with saline.

[5] = ApoE^−/− mice, Ang II, AMPT 100 mg/kg i.p. twice daily, 28 days
[6] = TgNR4A3^CML mice, Ang II, AMPT treatment

CC(N)(Cc1ccc(O)cc1)C(=O)O (stereo not drawn) [AMPT, alpha-methyl-p-tyrosine]
development of aortic aneurysm ([1]; ApoE^−/− mice infused with Ang II 1000 ng/kg/min for 28 days, AMPT 100 mg/kg IP twice a day): inhibits the development of aortic aneurysm | Ang II-induced increase in aortic diameter (ultrasonography) ([1]; ApoE^−/− mice, AMPT 100 mg/kg i.p. twice daily, significant after 14 days, accentuated until 28 days): reduced the increase in aortic diameter to values similar to those of control animals | structural alterations and inflammatory infiltrate in the aorta ([1]; ApoE^−/− mice, Ang II 1000 ng/kg/min for 28 days, AMPT 100 mg/kg IP twice a day): limits structural alterations and inflammatory infiltrate | disruption and rupture of elastic fibers (orcein staining) [1, 5]: limited the disruption and rupture of elastic fibers | macrophage (MAC3-positive cells) infiltrate in the vascular wall [1, 5]: prevented the significant macrophage (MAC3-positive cells) infiltrate | vascular remodelling / collagen deposition (Masson's trichrome) [1, 5]: attenuated | systolic pressure ([2]; day 0, mean ± SEM): 100.55 mm Hg | systolic pressure ([2]; day 7, mean ± SEM): 133.99 mm Hg | systolic pressure ([2]; day 14, mean ± SEM): 136.36 mm Hg | systolic pressure ([2]; day 21, mean ± SEM): 143.34 mm Hg | systolic pressure ([2]; day 28, mean ± SEM): 154.46 mm Hg | effect of AMPT treatment on Ang II-increased blood pressure ([2]; Ang II infusion, AMPT 100 mg/kg i.p. twice daily, 28 days): not significantly altered | development of aortic aneurysm ([3]; TgNR4A3^CML mice infused with Ang II 1000 ng/kg/min for 28 days, AMPT 100 mg/kg IP twice a day): inhibits the development of aortic aneurysm | Ang II-induced increase in aortic diameter (ultrasonography) ([3]; TgNR4A3^CML mice, AMPT 100 mg/kg i.p. twice daily, after 21 and 28 days, values similar to WT mice infused with Ang II): significantly prevented this effect | structural alterations and inflammatory infiltrate in the aorta ([3]; TgNR4A3^CML mice, Ang II 1000 ng/kg/min for 28 days, AMPT 100 mg/kg IP twice a day): limits structural alterations and inflammatory infiltrate | destructuring and rupture of the elastic laminae (orcein staining) [3, 6]: limited the destructuring and rupture of the elastic laminae | vascular inflammatory infiltrate (MAC3 immunohistochemistry) [3, 6]: reduced the important vascular inflammatory infiltrate | vascular remodelling and collagen deposition (Masson's trichrome) [3, 6]: attenuated the exacerbated vascular remodelling and collagen deposition | systolic pressure ([4]; day 0, mean ± SEM): 100.19 mm Hg | systolic pressure ([4]; day 7, mean ± SEM): 111.79 mm Hg | systolic pressure ([4]; day 14, mean ± SEM): 129.03 mm Hg | systolic pressure ([4]; day 21, mean ± SEM): 146.44 mm Hg | systolic pressure ([4]; day 28, mean ± SEM): 158.59 mm Hg | effect of AMPT treatment on Ang II-increased blood pressure ([4]; Ang II infusion, AMPT 100 mg/kg i.p. twice daily): without significant differences
